Experimental data as given in US20160095894A1, “DIETETIC MULTI-COMPONENT SYSTEM” (priority 2011, published 2016).

What was measured:
tumor tissue = experiment: Treatment of cancer under medical supervision
Method: The subjects were treated under medical supervision with antibiotics and vitamins, trace elements, and/or natural medicines individually and in combination.

[1] = Treatment of cardiovascular diseases; assay type: in vivo, human
Method: The subjects were treated with sodium carbonate with about at least 2 g daily, with improvement occurring within short time, within about 1-2 weeks.

[2] = Treatment of obesity, cellulitis, cellulite, acne
Method: Test series 1: The subjects were treated with vitamins, trace elements (ZK), and/or natural medicines individually and in combination.
Alkaline saturation of the body, at plasma pH of a maximum of 8.5.

[3] = Treatment of skin diseases (psoriasis, neurodermatitis); assay type: in vivo, human
Method: The term skin diseases describes in particular psoriasis and neurodermatitis. Basically, in the case of psoriasis patients the inventive dosing schedule is very welcome, because it counterbalances the negative effects of very strong medications that are administered in such cases; these improve by 65-80% with the inventive dosing schedule.
The subjects were treated with sodium carbonate with about 2 g+daily, after which the normal effect is achieved as described above; 1-2 weeks.

[4] = Treatment of acidosis, test series with and without Na
Method: In order to restore the body rapidly and successfully, test series were performed with and without Na.
Test series 1: The subjects were treated with vitamins, trace elements, and/or natural medicines individually and in combination.

[5] = test series 2, at least 2 g daily

O=C([O-])[O-].[Na+].[Na+] [sodium carbonate]
time until tissue reacted perceptibly (tumor tissue; cancer, at least 2 g daily): 1-2 weeks
swelling reduced (tumor tissue; cancer, statements made by the subjects): about 80%
reduction in tumor size (tumor tissue; cancer, to date): about 30%
uptake of mineral substances and natural medicines (tumor tissue; used internally and externally): improved considerably
time until improvement occurred ([1]; about at least 2 g daily): 1-2 weeks
uptake of mineral substances and natural medicines ([1]; cardiovascular diseases): improved considerably
rehabilitation ([1]; cardiovascular diseases, followed by vitamins and trace elements): 100%
weight change ([2]; followed by high-dose vitamins and acids for several weeks, no yo-yo effect over about 2 years): extensive weight reduction
rehabilitation ([2]; obesity, cellulitis, cellulite, acne): 95%
uptake of mineral substances and natural medicines ([2]; test series 2): improved considerably
time until tissue responded perceptibly [2, 5]: 1-2 weeks
time until the normal effect is achieved ([3]; about 2 g+ daily): 1-2 weeks
considerable improvement ([3]; psoriasis or neurodermatitis patients): about 80%
uptake of mineral substances and natural medicines ([4]; test series 2): improved considerably and obviously
time until improvement occurred [4, 5]: 1-2 weeks
successful ([4]; test series 2, followed by vitamins and trace elements): 100%
